# Laboratory results reported in patent US20240190854A1, “PYRIMIDINE OR PYRIDINE DERIVATIVES USEFUL AS HCN2 MODULATORS” (King's College London, priority 2021, published 2024).
# Counter-ions that a name gives are not always drawn.
# Columns and labels:
# [1] = target: T1, HCN2 (Homo sapiens (Human), UniProt Q9UL51); experiment: HCN2 current assay using PatchXpress 7000A; type: cell-based; conditions: PatchXpress protocol; read-out: PX HCN2 IC50
# Method in brief: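 Automated patch clamp (PatchXpress 7000A) at about 22° C. HCN current taken as leak-subtracted peak inward current at the end of a step to −110 mV, with a return to −30 mV for 8 seconds. Cumulative concentrations applied 7 minutes each; amplitude normalised to control.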
# [2] = target: HCN4 (Homo sapiens (Human), UniProt Q9Y3Q4); experiment: HCN4 current assay using PatchXpress 7000A; type: cell-based; conditions: PatchXpress protocol; read-out: PX HCN4 IC50
# Method in brief: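 Peak inward current taken at end of a −130 mV pulse, leak-subtracted, and normalized to the control amplitude. Cumulative concentrations applied for 7 min each at room temperature (approximately 22° C.) on an automated patch-clamp platform.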
# [3] = target: T2, HCN1 (Homo sapiens (Human), UniProt O60741); experiment: HCN1 current assay using PatchXpress 7000A; type: cell-based; conditions: PatchXpress protocol; read-out: PX HCN1 IC50
# Method: Example 126A, Using PatchXpress 7000A
# (§1) Solutions for recording HCN currents were:
# The membrane voltage was then stepped back to −30 mV for a further 8 seconds.
# The peak inward current measured at the end of the pulse to −110 mV (HCN1 and HCN2) or −130 mV (HCN4) was measured and any leak current subtracted to calculate the HCN current. The HCN current amplitude was measured after each control or compound addition and normalized to the control amplitude (Control A).
# All experiments were performed at room temperature (approximately 22° C.).
# Each test compound concentration was applied to the cell for seven (7) minutes, at which point the next cumulative concentration was applied.
# [4] = target: T1, HCN2; experiment: HCN2 current assay using the Sophion Qube; type: cell-based; conditions: Sophion Qube protocol; read-out: SQ HCN2 IC50
# Method: (§2) Example 126B, Using the Sophion Qube
# as §1
# (§3) This voltage protocol was applied every 20 seconds for the duration of the experiment. Both the vehicle (0.3% DMSO) and full block (3 mM CsCl) addition periods were applied for 10 experimental sweeps each.
# (§4) The current amplitudes were measured by subtracting metric A from metric B (see FIG. 2) with inhibition calculated by normalising to the vehicle addition (0.3% DMSO) and full inhibition by 3 mM CsCl in the same well.
# (§5) In total, compound was applied to the well for 600 seconds.
# [5] = target: T2, HCN1; experiment: HCN1 current assay using the Sophion Qube; type: cell-based; conditions: Sophion Qube protocol; read-out: SQ HCN1 IC50
# Method: as §2, §1, §3, §4, §5
# [6] = target: T3, hERG channel (Homo sapiens (Human), UniProt Q12809); experiment: hERG assay using Sophion Qube; type: cell-based; conditions: Sophion Qube protocol; read-out: SQ hERG IC50
# Method: Example 127B, Using Sophion Qube
# (§6) Solutions for recording hERG currents were:
# This voltage protocol was applied every 15 seconds for the duration of the experiment. Both the vehicle and 1st compound addition periods were applied for 10 sweeps. The 2nd compound addition period was applied for 20 sweeps. The compound concentration was added to the test well twice to assure complete exchange of the external buffer with the test compound. In total, compound was applied to the well for 450 seconds.
# [7] = target: T3, hERG channel; experiment: hERG assay using IonWorks Quattro; type: cell-based; conditions: IonWorks protocol; read-out: IW hERG IC50
# Method: Example 127A, Using IonWorks Quattro
# as §6
# This was followed by a […] step of is to −30 mV to evoke the hERG tail current. This sequence was repeated 5 times at a frequency of 0.25 Hz (see FIG. 3). Currents were measured from the tail step at the 5th pulse and referenced to the holding current. Compounds were then incubated for 6-7 minutes prior to a second measurement of the hERG signal using an identical pulse train.
# [8] = target: hNav1.5 (Homo sapiens (Human), UniProt Q14524)
# Method: Solutions for recording Nav1.5 currents were:
# Electrophysiological recordings were made from a human embryonic kidney (HEK) cell line stably expressing the full length hNav1.5. Population patch clamp measurements were made in the perforated patch clamp configuration (100 μg ml^−1 amphotericin) at room temperature (approx. 22° C.) using an IonWorks Quattro from Molecular Devices. […] Currents were first measured under control (pre-compound addition) conditions. […] Currents were measured from the depolarising step at the 15th pulse and referenced to the holding current.
# [9] = target: MDR1 (P-glycoprotein) (Homo sapiens (Human), UniProt P08183); experiment: in vitro; conditions: dog, MDCK-MDR1, pH 7.4
# MDR1 (P-glycoprotein), sequence (P08183 whole entry): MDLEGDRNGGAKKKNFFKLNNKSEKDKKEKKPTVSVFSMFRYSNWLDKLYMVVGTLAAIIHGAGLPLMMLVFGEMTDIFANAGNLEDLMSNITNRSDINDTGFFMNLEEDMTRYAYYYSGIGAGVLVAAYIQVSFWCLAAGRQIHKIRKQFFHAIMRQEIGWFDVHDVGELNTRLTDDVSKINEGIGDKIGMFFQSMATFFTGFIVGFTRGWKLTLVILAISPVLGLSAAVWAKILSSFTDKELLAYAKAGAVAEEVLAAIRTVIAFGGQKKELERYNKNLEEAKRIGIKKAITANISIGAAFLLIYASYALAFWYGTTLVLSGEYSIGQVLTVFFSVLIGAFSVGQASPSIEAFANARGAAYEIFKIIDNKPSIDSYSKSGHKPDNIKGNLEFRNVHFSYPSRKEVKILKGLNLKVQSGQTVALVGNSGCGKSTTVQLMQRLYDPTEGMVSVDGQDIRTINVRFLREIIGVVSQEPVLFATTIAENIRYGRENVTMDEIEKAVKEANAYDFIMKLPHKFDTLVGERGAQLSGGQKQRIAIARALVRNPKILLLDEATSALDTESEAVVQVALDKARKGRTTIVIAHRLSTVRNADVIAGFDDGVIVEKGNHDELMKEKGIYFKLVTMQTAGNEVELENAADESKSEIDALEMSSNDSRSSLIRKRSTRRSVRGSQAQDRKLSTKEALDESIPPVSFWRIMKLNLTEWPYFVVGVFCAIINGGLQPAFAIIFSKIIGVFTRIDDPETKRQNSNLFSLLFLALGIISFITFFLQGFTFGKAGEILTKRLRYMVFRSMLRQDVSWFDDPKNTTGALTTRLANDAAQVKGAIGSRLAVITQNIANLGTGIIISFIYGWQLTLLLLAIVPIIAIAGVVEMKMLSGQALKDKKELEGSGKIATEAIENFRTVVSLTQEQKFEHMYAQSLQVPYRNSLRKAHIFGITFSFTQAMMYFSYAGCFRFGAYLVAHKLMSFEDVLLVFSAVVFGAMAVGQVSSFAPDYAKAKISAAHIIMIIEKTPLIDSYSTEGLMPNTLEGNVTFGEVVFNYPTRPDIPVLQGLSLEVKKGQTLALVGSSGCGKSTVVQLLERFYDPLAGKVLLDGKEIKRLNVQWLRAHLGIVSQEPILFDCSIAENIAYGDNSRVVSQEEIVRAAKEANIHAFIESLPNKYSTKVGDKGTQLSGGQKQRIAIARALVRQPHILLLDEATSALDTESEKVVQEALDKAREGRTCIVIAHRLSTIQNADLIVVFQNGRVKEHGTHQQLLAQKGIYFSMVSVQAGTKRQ
# Method: Test compounds were added (10 μM, 0.1% DMSO final, n=2) to donor compartments of the Transwell plate assembly in assay buffer (Hanks balanced salt solution supplemented with 25 mM HEPES, adjusted to pH 7.4) for both apical to basolateral (A>B) and basolateral to apical (B>A) measurements. A parallel series of incubations were performed in the presence of the transporter inhibitor elacridar (5 μM) which was added to both compartments in the transwell plate. Incubations were performed at 37° C., with samples removed from both donor and acceptor chambers at T=0 and 1 hour for recovery assessment and compound analysed by mass spectrometry (LC-MS/MS), including an analytical internal standard.
# Apparent permeability (Papp) values were determined from the relationship:
# Where V is the volume of each Transwell compartment (apical 125 μL, basolateral 600 μL), and concentrations are the relative MS responses for compound (normalized to internal standard) in the donor chamber before incubation and acceptor chamber at the end of the incubation.
# Area=area of cells exposed for drug transfer (0.33 cm2).
# Efflux ratios (Papp B>A/Papp A>B) were calculated for each compound from the mean Papp values in each direction. […] The efflux ratios were also calculated in the same way from the runs carried out in the presence of the inhibitor. The net flux is the ratio of the efflux in the absence of inhibitor to that in the presence of inhibitor.
# Lucifer Yellow (LY) was added to the apical buffer in all wells to assess viability of the cell layer.
# Compound recovery from the wells was determined from MS responses (normalized to internal standard) in donor and acceptor chambers at the end of incubation compared to response in the donor chamber pre-incubation.
# T2 sequence (O60741 whole entry, species assumed): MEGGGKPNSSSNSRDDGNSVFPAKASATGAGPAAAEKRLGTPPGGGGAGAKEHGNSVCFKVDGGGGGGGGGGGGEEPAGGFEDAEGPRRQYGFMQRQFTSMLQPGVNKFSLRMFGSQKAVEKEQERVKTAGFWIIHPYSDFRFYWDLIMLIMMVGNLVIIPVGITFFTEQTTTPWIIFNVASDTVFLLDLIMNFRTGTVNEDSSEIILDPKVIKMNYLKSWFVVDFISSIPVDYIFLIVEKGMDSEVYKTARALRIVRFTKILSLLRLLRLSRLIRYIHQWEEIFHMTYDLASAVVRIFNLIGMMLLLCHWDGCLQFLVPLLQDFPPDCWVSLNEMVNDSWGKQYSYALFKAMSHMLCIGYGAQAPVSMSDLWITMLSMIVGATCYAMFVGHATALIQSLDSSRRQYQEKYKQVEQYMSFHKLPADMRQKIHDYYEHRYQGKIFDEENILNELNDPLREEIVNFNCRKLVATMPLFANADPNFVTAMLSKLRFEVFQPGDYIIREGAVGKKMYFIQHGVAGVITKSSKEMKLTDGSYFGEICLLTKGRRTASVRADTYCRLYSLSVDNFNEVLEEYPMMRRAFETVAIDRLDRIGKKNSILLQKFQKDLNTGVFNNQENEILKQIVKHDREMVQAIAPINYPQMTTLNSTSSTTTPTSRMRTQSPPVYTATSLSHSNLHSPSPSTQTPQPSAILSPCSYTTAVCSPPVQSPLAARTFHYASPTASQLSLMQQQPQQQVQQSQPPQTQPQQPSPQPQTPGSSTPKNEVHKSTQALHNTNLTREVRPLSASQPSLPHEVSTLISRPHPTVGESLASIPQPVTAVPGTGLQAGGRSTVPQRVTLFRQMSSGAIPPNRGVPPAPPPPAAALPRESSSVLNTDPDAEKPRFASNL
# HCN4, sequence (Q9Y3Q4 whole entry, species assumed): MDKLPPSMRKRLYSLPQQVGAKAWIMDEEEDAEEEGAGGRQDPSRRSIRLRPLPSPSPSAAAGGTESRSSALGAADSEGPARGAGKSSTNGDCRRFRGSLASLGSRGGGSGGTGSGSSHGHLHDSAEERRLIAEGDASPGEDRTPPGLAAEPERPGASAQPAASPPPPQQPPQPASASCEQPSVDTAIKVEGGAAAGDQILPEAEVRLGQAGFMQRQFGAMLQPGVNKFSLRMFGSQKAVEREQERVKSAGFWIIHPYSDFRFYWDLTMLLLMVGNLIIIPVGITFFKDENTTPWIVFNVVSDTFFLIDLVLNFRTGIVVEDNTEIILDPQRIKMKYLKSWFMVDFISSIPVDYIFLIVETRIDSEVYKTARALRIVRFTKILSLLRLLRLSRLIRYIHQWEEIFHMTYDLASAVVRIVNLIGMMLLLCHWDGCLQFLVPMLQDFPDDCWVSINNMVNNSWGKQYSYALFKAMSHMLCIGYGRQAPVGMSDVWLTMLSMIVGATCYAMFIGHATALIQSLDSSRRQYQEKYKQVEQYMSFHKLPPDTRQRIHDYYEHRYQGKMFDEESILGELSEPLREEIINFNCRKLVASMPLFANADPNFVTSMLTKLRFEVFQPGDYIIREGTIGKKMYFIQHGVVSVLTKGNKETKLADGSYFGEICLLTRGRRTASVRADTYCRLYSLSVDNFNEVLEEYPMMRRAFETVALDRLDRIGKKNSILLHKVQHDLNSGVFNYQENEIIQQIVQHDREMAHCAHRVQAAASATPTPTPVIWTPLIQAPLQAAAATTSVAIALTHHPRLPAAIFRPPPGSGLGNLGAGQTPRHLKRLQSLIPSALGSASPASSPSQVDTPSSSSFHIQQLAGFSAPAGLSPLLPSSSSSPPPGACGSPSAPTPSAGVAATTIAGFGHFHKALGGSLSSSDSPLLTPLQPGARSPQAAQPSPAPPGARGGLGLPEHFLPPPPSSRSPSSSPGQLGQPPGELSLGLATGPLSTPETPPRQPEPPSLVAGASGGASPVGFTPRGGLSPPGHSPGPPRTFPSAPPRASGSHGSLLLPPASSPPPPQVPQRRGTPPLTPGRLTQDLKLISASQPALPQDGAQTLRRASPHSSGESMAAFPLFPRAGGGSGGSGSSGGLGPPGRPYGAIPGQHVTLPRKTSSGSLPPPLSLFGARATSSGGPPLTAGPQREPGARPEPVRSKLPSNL
# T1 sequence (Q9UL51 whole entry): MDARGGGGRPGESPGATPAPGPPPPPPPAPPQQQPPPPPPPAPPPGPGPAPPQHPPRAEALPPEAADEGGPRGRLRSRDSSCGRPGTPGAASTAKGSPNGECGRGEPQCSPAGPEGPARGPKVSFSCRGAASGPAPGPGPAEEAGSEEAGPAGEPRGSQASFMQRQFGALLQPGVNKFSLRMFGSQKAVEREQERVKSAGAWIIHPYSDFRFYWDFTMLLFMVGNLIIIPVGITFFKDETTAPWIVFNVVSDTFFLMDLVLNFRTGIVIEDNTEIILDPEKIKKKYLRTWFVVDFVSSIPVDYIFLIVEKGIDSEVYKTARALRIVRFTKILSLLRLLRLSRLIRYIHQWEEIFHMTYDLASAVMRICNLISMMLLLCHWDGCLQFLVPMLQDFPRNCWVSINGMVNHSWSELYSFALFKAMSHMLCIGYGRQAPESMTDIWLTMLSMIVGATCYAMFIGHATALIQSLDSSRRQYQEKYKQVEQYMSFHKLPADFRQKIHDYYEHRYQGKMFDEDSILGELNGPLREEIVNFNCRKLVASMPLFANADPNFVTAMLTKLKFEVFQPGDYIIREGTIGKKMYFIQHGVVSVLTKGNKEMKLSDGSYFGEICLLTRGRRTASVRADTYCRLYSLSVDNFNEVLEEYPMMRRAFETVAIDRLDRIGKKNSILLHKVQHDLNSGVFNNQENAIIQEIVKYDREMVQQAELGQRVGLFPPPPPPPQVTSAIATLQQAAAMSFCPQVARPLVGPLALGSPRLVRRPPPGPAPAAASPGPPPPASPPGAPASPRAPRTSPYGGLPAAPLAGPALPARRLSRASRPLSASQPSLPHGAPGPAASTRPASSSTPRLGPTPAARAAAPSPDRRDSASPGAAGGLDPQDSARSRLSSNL
Structure (SMILES),IC50 [1] [µM],IC50 [2] [µM],IC50 [3] [µM],IC50 [4] [µM],also measured
"N#Cc1nc(C[C@H](N)c2ccccc2-c2noc3ccccc23)ccc1F [Example 6, (S)-1-[2-(Benzo[d]isoxazol-3-yl)phenyl]-2-(6-cyano-5-fluoropyridine-2-yl)ethan-1-amine hydrochloride]",0.39,8.1,1.8,,
"CCc1ccc(C)c(C[C@H](N)c2ccccc2-c2noc3ccccc23)n1 [Example 9, (S)-1-[2-(Benzo[d]isoxazol-3-yl)phenyl]-2-(6-ethyl-3-methylpyridine-2-yl)ethan-1-amine hydrochloride]",0.26,1.7,0.37,,
"CS(=O)(=O)c1ccc(F)c(C[C@H](N)c2ccccc2-c2noc3cc(C(F)(F)F)ccc23)n1 [Example 10, (S)-2-(3-Fluoro-6-methylsulfonylpyridine-2-yl)-1-[2-(6-trifluoromethylbenzo[d]isoxazol-3-yl)phenyl]ethan-1-amine hydrochloride]",,,,17.2,
"N[C@@H](Cc1nc(Br)ccc1F)c1ccccc1-c1noc2cc(F)ccc12 [Example 15, (S)-2-(6-Bromo-3-fluoropyridine-2-yl)-1-[2-(6-fluorobenzo[d]isoxazol-3-yl)phenyl]-ethan-1-amine hydrochloride]",,,,1.2,IC50 [5]: 5.1 µM
"N[C@@H](Cc1nc(Br)ccc1F)c1ccccc1-c1noc2cc(Br)ccc12 [Example 16, (S)-2-(6-Bromo-3-fluoropyridine-2-yl)-1-[2-(6-bromobenzo[d]isoxazol-3-yl)phenyl]-ethan-1-amine]",,,,2,IC50 [5]: 3 µM
"N#Cc1ccc2c(-c3ccccc3[C@@H](N)Cc3nc(Br)ccc3F)noc2c1 [Example 17, (S)-2-(6-Bromo-3-fluoropyridine-2-yl)-1-[2-(6-cyanobenzo[d]isoxazol-3-yl)phenyl]-ethan-1-amine hydrochloride]",,,,5.8,IC50 [6]: 3.1 µM
"CS(=O)(=O)c1ccc(F)c(C[C@H](N)c2ccccc2-c2noc3cc(Br)ccc23)n1 [Example 21, (S)-1-[2-(6-Bromobenzo[d]isoxazol-3-yl)phenyl]-2-(3-Fluoro-6-methylsulfonylpyridin-yl)ethan-1-amine hydrochloride]",,,,2.5,IC50 [5]: 5.3 µM
"CC(C)S(=O)(=O)c1ccc(F)c(C[C@H](N)c2ccccc2-c2noc3cc(Cl)ccc23)n1 [Example 25, (S)-1-[2-(6-Chlorobenzo[d]isoxazol-3-yl)phenyl]-2-(3-fluoro-6-isopropyisulfonylpyridin-2-yl)ethan-1-amine hydrochloride]",,,,> 30,
"N#Cc1ccc(F)c(C[C@H](N)c2ccccc2-c2noc3cc(Br)ccc23)n1 [Example 27, (S)-2-{2-Amino-2-[2-(6-bromobenzo[d]isoxazol-3-yl)phenyl]ethyl}-3-fluoropyridine-6-carbonitrile]",,,,1.4,
"Cc1ccc(C#N)nc1C[C@H](N)c1ccccc1-c1noc2cc(Br)ccc12 [Example 28, (S)-2-{2-Amino-2-[2-(6-bromobenzo[d]isoxazol-3-yl)phenyl]ethyl}-3-methylpyridine-6-carbonitrile]",,,,1,
"N#Cc1ccc2c(-c3ccccc3[C@@H](N)Cc3ccccn3)noc2c1 [Example 29, (S)-1-[2-(6-Cyanobenzo[d]isoxazol-3-yl)phenyl]-2-(pyridine-2-yl)ethan-1-amine]",4.3,> 30,8.9,,
"N[C@@H](Cc1ccccn1)c1ccccc1-c1noc2cc(CO)ccc12 [Example 30, (S)-1-[2-(6-Hyroxymethylbenzo[d]isoxazol-3-yl)phenyl]-2-(pyridine-2-yl)ethan-1-amine hydrochloride]",3,12.8,3,,
"Cn1nc(-c2ccccc2[C@@H](N)Cc2ccccn2)c2ccccc21 [Example 60, (S)-1-[2-(1-Methyl-1H-indazole-3-yl)phenyl]-2-(pyridine-2-yl)ethan-1-amine hydrochloride]",3.1,> 30,> 30,,IC50 [7]: 0.32 µM; IC50 [8]: 9.2 µM
"N[C@@H](Cc1ncccc1F)c1ccccc1-c1noc2ccccc12 [Example 63, (S)-1-[2-(Benzo[d]isoxazol-3-yl)phenyl]-2-(3-fluoropyridin-2-yl)ethan-1-amine hydrochloride]",0.5,> 30,8,,
"N[C@@H](Cc1ccc(F)cn1)c1ccccc1-c1noc2ccccc12 [Example 69, (S)-1-[2-(Benzo[d]isoxazol-3-yl)phenyl]-2-(5-fluoropyridin-2-yl)ethan-1-amine hydrochloride]",0.5,8.2,1.4,,
"COc1ccnc(C[C@H](N)c2ccccc2-c2noc3ccccc23)c1 [Example 70, (S)-1-[2-(Benzo[d]isoxazol-3-yl)phenyl]-2-(4-methoxypyridin-2-yl)ethan-1-amine]",1,19.1,3.8,,
"N#Cc1ccc(F)c(C[C@H](N)c2ccccc2-c2noc3ccccc23)n1 [Example 71, (S)-1-[2-(Benzo[d]isoxazol-3-yl)phenyl]-2-(6-cyano-3-fluoropyridin-2-yl)ethan-1-amine formate]",0.5,3.5,4.4,,
"NC(=O)c1ccc(F)c(C[C@H](N)c2ccccc2-c2noc3ccccc23)n1 [Example 72, (S)-6-{2-Amino-2-[2-(benzo[d]isoxazol-3-yl)phenyl]ethyl}-5-fluoropyridine-2-carboxamide formate]",1.2,10.3,1,,"IC50 [7]: 20.9 µM; IC50 [8]: 18.6 µM; efflux ratio at 1 h, 10 μM [9]: 11.3"
"Cc1ccc(F)c(C[C@H](N)c2ccccc2-c2noc3ccccc23)n1 [Example 73, (S)-1-[2-(Benzo[d]isoxazol-3-yl)phenyl]-2-(3-fluoro-6-methylpyridin-2-yl)ethan-1-amine hydrochloride]",0.4,2.8,0.5,,
"CN(C)C(=O)c1ccc(F)c(C[C@H](N)c2ccccc2-c2noc3ccccc23)n1 [Example 74, (S)-6-{2-Amino-2-[2-(benzo[d]isoxazol-3-yl)phenyl]ethyl}-5-fluoro-N,N-dimethylpyridin-2-carboxamide hydrochloride]",1.8,20.9,4.6,,"IC50 [7]: 9.9 µM; IC50 [8]: 11.4 µM; efflux ratio at 1 h, 10 μM [9]: 16.7"
"Cc1cccc(C[C@H](N)c2ccccc2-c2noc3ccccc23)n1 [Example 114, (S)-1-[2-(Benzo[d]isoxazol-3-yl)phenyl]-2-(6-methylpyridine-2-yl)ethan-1-amine hydrochloride]",0.62,9,4.5,,
"N#Cc1cccc(C[C@H](N)c2ccccc2-c2noc3ccccc23)n1 [Example 116, (S)-1-[2-(Benzo[d]isoxazol-3-yl)phenyl]-2-(6-cyanopyridine-2-yl)ethan-1-amine hydrochloride]",0.7,13.5,3.4,,"IC50 [7]: 10.3 µM; IC50 [8]: 11.1 µM; efflux ratio at 1 h, 10 μM [9]: 1.1"
"Cc1ccc(S(C)(=O)=O)nc1C[C@H](N)c1ccccc1-c1noc2ccccc12 [Example 125, (S)-1-[2-(Benzo[d]isoxazol-3-yl)phenyl]-2-[3-methyl-6-(methylsulfonyl)pyridine-2-yl]ethan-1-amine hydrochloride]",0.24,1.2,0.4,,
